Results reported in patent US8394969B2, “Cyclic benzimidazole derivatives useful as anti-diabetic agents” (Merck Sharp & Dohme Corp., priority 2008, dated 2013).
Counter-ions that a name gives are not always drawn.

molecular target: recombinant human AMPK complex 1 (containing α1β1γ1) (Homo sapiens, UniProt Q13131+Q9Y478); experiment: […] (in vitro AMPK activation assay); format: biochemical; conditions: read-out: % Maximum AMP Activation of human AMPK Complex 1, recombinant human AMPK complex 1 (α1β1γ1); basal activity subtracted
Sequence (Q13131 whole entry): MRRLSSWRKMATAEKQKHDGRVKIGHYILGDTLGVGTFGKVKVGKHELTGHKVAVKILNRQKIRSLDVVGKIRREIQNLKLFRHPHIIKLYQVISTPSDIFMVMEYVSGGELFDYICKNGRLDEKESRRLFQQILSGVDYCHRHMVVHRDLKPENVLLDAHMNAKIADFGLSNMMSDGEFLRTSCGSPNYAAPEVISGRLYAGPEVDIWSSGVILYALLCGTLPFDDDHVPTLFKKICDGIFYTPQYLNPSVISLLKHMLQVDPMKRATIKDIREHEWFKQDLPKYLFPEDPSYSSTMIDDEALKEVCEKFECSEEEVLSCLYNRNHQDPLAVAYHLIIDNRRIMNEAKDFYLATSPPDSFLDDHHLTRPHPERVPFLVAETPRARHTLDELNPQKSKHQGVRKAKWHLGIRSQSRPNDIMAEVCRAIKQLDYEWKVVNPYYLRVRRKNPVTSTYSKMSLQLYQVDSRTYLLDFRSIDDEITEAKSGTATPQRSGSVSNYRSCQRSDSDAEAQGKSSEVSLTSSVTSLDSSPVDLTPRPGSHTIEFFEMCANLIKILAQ
Sequence (Q9Y478 whole entry): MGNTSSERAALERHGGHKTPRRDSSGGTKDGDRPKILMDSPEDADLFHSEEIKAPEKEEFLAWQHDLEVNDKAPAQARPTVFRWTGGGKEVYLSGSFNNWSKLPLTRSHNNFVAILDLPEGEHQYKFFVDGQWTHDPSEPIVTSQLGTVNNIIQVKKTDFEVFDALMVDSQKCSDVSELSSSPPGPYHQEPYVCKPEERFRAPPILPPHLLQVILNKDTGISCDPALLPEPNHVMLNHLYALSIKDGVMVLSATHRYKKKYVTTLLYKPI
Sequence (P54619 whole entry partner): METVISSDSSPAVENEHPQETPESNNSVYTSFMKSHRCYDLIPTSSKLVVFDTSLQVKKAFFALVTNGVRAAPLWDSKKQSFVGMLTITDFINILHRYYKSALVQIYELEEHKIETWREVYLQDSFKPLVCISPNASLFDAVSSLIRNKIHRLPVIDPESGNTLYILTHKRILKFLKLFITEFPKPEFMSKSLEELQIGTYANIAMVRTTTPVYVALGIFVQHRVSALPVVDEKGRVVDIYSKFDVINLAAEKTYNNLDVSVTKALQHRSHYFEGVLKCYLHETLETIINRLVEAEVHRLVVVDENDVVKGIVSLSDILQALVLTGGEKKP

Q: `Cc1ccc(Oc2nc3cc(-c4cccc(N(C)C)c4)c(Cl)cc3[nH]2)cc1C(=O)O` [Example 346, Ammonium 5-({6-chloro-5-[3-(dimethylamino)phen-yl]-1H-benzimidazol-2-yl}oxy)-2-methylbenzoate] was tested. Which Emax did it give?
A: > 80%

Q: `Cc1ccc(Oc2nc3cc(-c4ccc(OC(F)(F)F)cc4)c(Cl)cc3[nH]2)cc1C(=O)O` [Example 363, Ammonium 5-({6-chloro-5-[4-(trifluoromethoxy)phenyl]-1H-benzimidazol-2-yl}oxy)-2-methylbenzoate] was tested. Which Emax did it give?
A: > 80%

same assay, conditions: recombinant human AMPK complex 1 (α1β1γ1); basal activity subtracted; read-out: % Maximum AMP Activation of human AMPK Complex 1

Q: How did the Emax turn out when `COC(=O)c1cc(Oc2nc3cc(C#Cc4ccccc4OC)c(Cl)cc3[nH]2)ccc1C` [Example 107, 5-[6-Chloro-5-(2-methoxy-phenylethynyl)-1H-benzoimidazol-2-yloxy]-2-methyl-ester] was run?
A: > 80%

Q: Which Emax does the source give for `O=c1[nH]nc(-c2cccc(Oc3nc4cc(-c5ccc(-c6ccccc6)cc5)c(Cl)cc4[nH]3)c2)o1` [Example 47, 5-[3-(5-Biphenyl-4-yl-6-chloro-1H-benzoimidazol-2-yloxy)-phenyl]-3H-[1,3,4]oxadiazol-2-one] here?
A: > 80%

Q: With `CC(=O)c1ccc(-c2cc3nc(Oc4ccc(C)c(C(=O)O)c4)[nH]c3cc2Cl)cc1` [Example 157, 5-{5-(4-Acetyl-phenyl)-6-chloro-1H-benzoimidazol-2-yloxy]-2-methyl-benzoic acid] as the compound, how does the Emax read?
A: > 80%

Q: How did the Emax turn out when `COc1ccccc1C#Cc1cc2nc(Oc3ccc(C)c(C(=O)O)c3)[nH]c2cc1Cl` [Example 106, 5-[6-Chloro-5-(2-methoxy-phenylethynyl)-1H-benzoimidazol-2-yloxy]-2-methyl-benzoic acid] was run?
A: > 80%

Q: Which Emax does the source give for `Cc1cc(Oc2nc3cc(-c4ccc(-c5ccc(O)nc5)cc4)c(Cl)cc3[nH]2)cc(C(=O)O)c1C` [Example 313, 5-{6-Chloro-5-[4-(6-hydroxy-pyridin-3-yl)-phenyl]-1H-benzoimidazol-2-yloxy}-2,3-dimethyl-benzoic acid] here?
A: > 80%

Q: How did the Emax turn out when `Cc1ccc(Oc2nc3cc(-c4cnn(C)c4)c(Cl)cc3[nH]2)cc1C(=O)O` [Example 57, 5-[6-Chloro-5-(1-methyl-1H-pyrazol-4-yl)-1H-benzoimidazol-2-yloxy]-2-methyl-benzoic acid] was run?
A: > 80%

Q: `Cc1ccc(Oc2nc3cc(-c4ccc(-c5c(C)noc5C)cc4)c(Cl)cc3[nH]2)cc1C(=O)O` [Example 204, 5-({6-chloro-5-[4-(3,5-dimethylisoxazol-4-yl)phenyl]-1H-benzimidazol-2-yl}oxy)-2-methylbenzoic acid] was tested. Which Emax did it give?
A: > 80%

Q: How did the Emax turn out when `Cc1ccc(Oc2nc3cc(-c4ccc(N5CCN(C(=O)OC(C)(C)C)CC5)nc4)c(Cl)cc3[nH]2)cc1C(=O)O` [Example 175, 4-{5-[2-(3-Carboxy-4-methyl-phenoxy)-6-chloro-1H-benzoimidazol-5-yl]-pyridin-2-yl}-piperazine-1-carboxylic acid tert-butyl ester] was run?
A: > 80%

Q: For `Cc1ccc(Oc2nc3cc(-c4ccc(N(C)C)cc4)c(Cl)cc3[nH]2)cc1C(=O)O` [Example 318, 2-(3-carboxy-4-methylphenoxy)-6-chloro-5-[4-(dimethylamino)phen-yl]-1H-benzimidazol-3-ium chloride], which Emax is on record?
A: > 80%

Q: For `O=C(O)c1ccc(COc2nc3cc(-c4ccc(-c5ccccc5)cc4)c(Cl)cc3[nH]2)cc1` [Example 226, 4-(5-Biphenyl-4-yl-6-chloro-1H-benzoimidazol-2-yloxymethyl)-benzoic acid], which Emax is on record?
A: > 80%

Q: `CCN1CCc2cc(-c3cc4nc(Oc5ccc(C)c(C(=O)O)c5)[nH]c4cc3Cl)ccc21` [Example 276, 5-[6-Chloro-5-(1-ethyl-2,3-dihydro-1H-indol-5-yl)-1H-benzoimidazol-2-yloxy]-2-methyl-benzoic acid] was tested. Which Emax did it give?
A: > 80%

Q: `Cc1ccc(Oc2nc3cc(-c4ccc5c(c4)OCCO5)c(Cl)cc3[nH]2)cc1C(=O)O` [Example 360, 5-[6-Chloro-5-(2,3-dihydro-benzo[1,4]dioxin-6-yl)-1H-benzoimidazol-2-yloxy]-2-methyl-benzoic acid] was tested. Which Emax did it give?
A: > 80%

Q: Which Emax does the source give for `Cc1ccc(Oc2nc3cc(-c4ccc5c(c4)CNC5)c(Cl)cc3[nH]2)cc1C(=O)O` [Example 301, 5-[2-(3-carboxy-4-methylphenoxy)-6-chloro-1H-benzimidazol-5-yl]-2,3-dihydro-1H-isoindolium trifluoroacetate] here?
A: > 80%

Q: Which Emax does the source give for `COC(=O)c1ccc(Oc2nc3cc(-c4ccc(-c5ccccc5)cc4)c(Cl)cc3[nH]2)cc1O` [Example 31, 4-(5-Biphenyl-4-yl-6-chloro-1H-benzoimidazol-2-yloxy)-2-hydroxy-benzoic acid methyl ester] here?
A: > 80%

Q: For `CCOC(=O)c1c(C)[nH]c2ccc(Oc3nc4cc(-c5ccc(-c6ccccc6)cc5)c(Cl)cc4[nH]3)cc12` [Example 4, 5-(5-Biphenyl-4-yl-6-chloro-1H-benzoimidazol-2-yloxy)-2-methyl-1H-indole-3-carboxylic acid ethyl ester], which Emax is on record?
A: > 80%

Q: Which Emax does the source give for `CCc1ccc(Oc2nc3cc(-c4ccc(-c5ccccc5)cc4)c(Cl)cc3[nH]2)cc1C(=O)O` [Example 212, 5-(5-Biphenyl-4-yl-6-chloro-1H-benzoimidazol-2-yloxy)-2-ethyl-benzoic acid] here?
A: > 80%

Q: For `COc1ccc2cc(-c3cc4nc(Oc5cc(C)c(C)c(C(=O)O)c5)[nH]c4cc3Cl)ccc2c1` [Example 310, 5-[6-Chloro-5-(6-methoxy-naphthalen-2-yl)-1H-benzoimidazol-2-yloxy]-2,3-dimethyl-benzoic acid], which Emax is on record?
A: > 80%

Q: How did the Emax turn out when `Cc1ccc(Oc2nc3cc(-c4ccc(C(C)C)cc4)c(Cl)cc3[nH]2)cc1C(=O)O` [Example 352, 5-[6-Chloro-5-(4-isopropyl-phenyl)-1H-benzoimidazol-2-yloxy]-2-methyl-benzoic acid] was run?
A: > 80%

Q: For `O=C(O)Cn1nnc(-c2cccc(Oc3nc4cc(-c5ccc(-c6ccccc6)cc5)c(Cl)cc4[nH]3)c2)n1` [Example 40, {5-[3-(5-Biphenyl-4-yl-6-chloro-1H-benzoimidazol-2-yloxy)-phenyl]-tetrazol-2-yl}-acetic acid], which Emax is on record?
A: > 80%

Q: How did the Emax turn out when `Cc1ccc(Oc2nc3cc(-c4ccc(-c5ccccc5N)cc4)c(Cl)cc3[nH]2)cc1C(=O)O` [Example 205, 5-{[5-(2′-aminobiphenyl-4-yl)-6-chloro-1H-benzimidazol-2-yl]oxy}-2-methylbenzoic acid] was run?
A: > 80%

Q: With `O=C(O)C(O)c1ccc(Oc2nc3cc(-c4ccc(-c5ccccc5)cc4)c(Cl)cc3[nH]2)cc1` (stereo not drawn) [Example 20, [4-(5-Biphenyl-4-yl-6-chloro-1H-benzoimidazol-2-yloxy)-phenyl]-hydroxy-acetic acid] as the compound, how does the Emax read?
A: > 80%

Q: Which Emax does the source give for `Cc1ccc(Oc2nc3cc(-c4ccc(-c5nnn[nH]5)cc4)c(Cl)cc3[nH]2)cc1C(=O)O` [Example 176, 5-{6-Chloro-5-[4-(1H-tetrazol-5-yl)-phenyl]-1H-benzoimidazol-2-yloxy}-2-methyl-benzoic acid] here?
A: > 80%

Q: `Cc1ccc(Oc2nc3cc(-c4ccc5c(ccc(=O)n5C)c4)c(Cl)cc3[nH]2)cc1C(=O)O` [Example 234, 5-[6-Chloro-5-(1-methyl-2-oxo-1,2-dihydro-quinolin-6-yl)-1H-benzoimidazol-2-yloxy]-2-methyl-benzoic acid] was tested. Which Emax did it give?
A: > 80%

Q: With `COC(=O)c1cc(Oc2nc3cc(C#CC4(O)CCCC4)c(Cl)cc3[nH]2)ccc1C` [Example 137, 5-[6-Chloro-5-(1-hydroxy-cyclopentylethynyl)-1H-benzoimidazol-2-yloxy]-2-methyl-benzoic acid methyl ester] as the compound, how does the Emax read?
A: > 80%

Q: How did the Emax turn out when `Cc1ccc(Oc2nc3cc(-c4ccc5c(c4)[nH]c4ccccc45)c(Cl)cc3[nH]2)cc1C(=O)O` [Example 147, 5-[5-(9H-Carbazol-2 yl)-6-chloro-1H-benzoimidazol-2-yloxy]-2-methyl-benzoic acid] was run?
A: > 80%

Q: Which Emax does the source give for `COc1ccc(-c2cc3nc(Oc4ccc(C)c(C(=O)O)c4)[nH]c3cc2Cl)cc1OC` [Example 260, 2-(3-carboxy-4-methylphenoxy)-6-chloro-5-(3,4-dimethoxyphenyl)-1H-3,1-benzimidazol-3-ium trifluoroacetate] here?
A: > 80%

Q: How did the Emax turn out when `Cc1ccc(Oc2nc3cc(C#Cc4ccc(-c5nccs5)cc4)c(Cl)cc3[nH]2)cc1C(=O)O` [Example 84, 5-[6-Chloro-5-(4-thiazol-2-yl-phenylethynyl)-1H-benzoimidazol-2-yloxy]-2-methyl-benzoic acid] was run?
A: > 80%

Q: With `OCc1cccc(Oc2nc3cc(-c4ccc(-c5ccccc5)cc4)c(Cl)cc3[nH]2)c1` [Example 37, [3-(5-Biphenyl-4-yl-6-chloro-1H-benzoimidazol-2-yloxy)-phenyl]-methanol] as the compound, how does the Emax read?
A: > 80%

Q: For `Cc1ccc(Oc2nc3cc(-c4ccc(-c5cccnc5)cc4)c(Cl)cc3[nH]2)cc1C(=O)O` [Example 169, 5-[6-Chloro-5-(4-pyridin-3-yl-phenyl)-1H-benzoimidazol-2-yloxy]-2-methyl-benzoic acid], which Emax is on record?
A: > 80%

Q: For `COC(=O)c1cc(Oc2nc3cc(C#Cc4cccc(OC)c4)c(Cl)cc3[nH]2)ccc1C` [Example 109, 5-[6-Chloro-5-(3-methoxy-phenylethynyl)-1H-benzoimidazol-2-yloxy]-2-methyl-benzoic acid methyl ester], which Emax is on record?
A: > 80%

Q: With `COC(=O)c1cc(Oc2nc3cc(C#Cc4ccc(-c5cnco5)cc4)c(Cl)cc3[nH]2)ccc1C` [Example 123, 5-[6-Chloro-5-(4-oxazol-5-yl-phenylethynyl)-1H-benzoimidazol-2-yloxy]-2-methyl-benzoic acid methyl ester] as the compound, how does the Emax read?
A: > 80%

Q: How did the Emax turn out when `Cc1ccc(Oc2nc3cc(C#CC4CCCC4O)c(Cl)cc3[nH]2)cc1C(=O)O` (stereo not drawn) [Example 130, 5-[6-Chloro-5-(2-hydroxy-cyclopentylethynyl)-1H-benzoimidazol-2-yloxy]-2-methyl-benzoic acid] was run?
A: > 80%

same assay, conditions: recombinant human AMPK complex 1 (α1β1γ1); read-out: EC50

Q: `Cc1ccc(Oc2nc3cc(-c4ccc5c(ccn5C)c4)c(Cl)cc3[nH]2)cc1C(=O)O` [Example 229, 5-{[6-chloro-5-(1-methyl-1H-indol-5-yl)-1H-benzimidazol-2-yl]oxy}-2-methylbenzoic acid] was tested. Which EC50 did it give?
A: 3 nM

Q: For `Cc1ccc(Oc2nc3cc(-c4ccc(-c5ccc(C(=O)O)cc5)cc4)c(F)cc3[nH]2)cc1C(=O)O` [Example 184, 4′-[2-3-carboxy-4-methylphenoxy-6-fluoro-1H-benzimidazol-5-yl]biphenyl-4-carboxylic acid], which EC50 is on record?
A: 8 nM
